These results are taken from patent publication US10385019B2, “Inhibitors of EGFR and methods of use thereof” (Dana-Farber Cancer Institute, Inc., priority 2015, dated 2019).

Experiment [1] has as its target EGFR T790M/L858R Ba/F3 cell line (Homo sapiens, UniProt P00533, T790M/L858R, cells depend on it). Put plainly: Ba/F3 cell proliferation model. The experiment is classed as cell-based, murine. To be noted: for Activity (% inhibition): combined with cetuximab (% cetuximab, 1.0 μM drug concentration with 1.0 μg/mL cetuximab). In short, it runs like this: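 Murine Ba/F3 cells made IL-3-independent by retroviral EGFR L858R/T790M, selected in puromycin (2 μg/ml) and kept in RPMI 1640 with 10% FBS. Cells were exposed to serially diluted compound for 72 h, with growth read by MTS assay in six wells per point and ≥3 repeats. Sigmoidal dose-response non-linear regression gave the values.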

The target in experiment [2] is Del/T790M Ba/F3 cell line (Homo sapiens, UniProt P00533, DEL746-750/T790M, cells depend on it). Nature of the experiment: Ba/F3 cell proliferation model. The format is cell-based, murine. From the text: (§1) The selectivity between wild-type EGFR and EGFR containing one or more mutations as described herein can also be measured using cellular proliferation assays where cell proliferation is dependent on kinase activity. For example, murine Ba/F3 cells transfected with a suitable version of wild-type EGFR (such as VIII; containing a WT EGFR kinase domain), or Ba/F3 cells transfected with L858R/T790M, Del/T790M/L718Q, L858R/T790M/L718Q, L858R/T790M/C797S, Del/T790M/C797S, L858R/T790M/I941R, or Exon 19 deletion/T790M can be used.
Chain of Del/T790M Ba/F3 cell line (P00533 with tags, fused parts or gaps DEL746-750/T790M): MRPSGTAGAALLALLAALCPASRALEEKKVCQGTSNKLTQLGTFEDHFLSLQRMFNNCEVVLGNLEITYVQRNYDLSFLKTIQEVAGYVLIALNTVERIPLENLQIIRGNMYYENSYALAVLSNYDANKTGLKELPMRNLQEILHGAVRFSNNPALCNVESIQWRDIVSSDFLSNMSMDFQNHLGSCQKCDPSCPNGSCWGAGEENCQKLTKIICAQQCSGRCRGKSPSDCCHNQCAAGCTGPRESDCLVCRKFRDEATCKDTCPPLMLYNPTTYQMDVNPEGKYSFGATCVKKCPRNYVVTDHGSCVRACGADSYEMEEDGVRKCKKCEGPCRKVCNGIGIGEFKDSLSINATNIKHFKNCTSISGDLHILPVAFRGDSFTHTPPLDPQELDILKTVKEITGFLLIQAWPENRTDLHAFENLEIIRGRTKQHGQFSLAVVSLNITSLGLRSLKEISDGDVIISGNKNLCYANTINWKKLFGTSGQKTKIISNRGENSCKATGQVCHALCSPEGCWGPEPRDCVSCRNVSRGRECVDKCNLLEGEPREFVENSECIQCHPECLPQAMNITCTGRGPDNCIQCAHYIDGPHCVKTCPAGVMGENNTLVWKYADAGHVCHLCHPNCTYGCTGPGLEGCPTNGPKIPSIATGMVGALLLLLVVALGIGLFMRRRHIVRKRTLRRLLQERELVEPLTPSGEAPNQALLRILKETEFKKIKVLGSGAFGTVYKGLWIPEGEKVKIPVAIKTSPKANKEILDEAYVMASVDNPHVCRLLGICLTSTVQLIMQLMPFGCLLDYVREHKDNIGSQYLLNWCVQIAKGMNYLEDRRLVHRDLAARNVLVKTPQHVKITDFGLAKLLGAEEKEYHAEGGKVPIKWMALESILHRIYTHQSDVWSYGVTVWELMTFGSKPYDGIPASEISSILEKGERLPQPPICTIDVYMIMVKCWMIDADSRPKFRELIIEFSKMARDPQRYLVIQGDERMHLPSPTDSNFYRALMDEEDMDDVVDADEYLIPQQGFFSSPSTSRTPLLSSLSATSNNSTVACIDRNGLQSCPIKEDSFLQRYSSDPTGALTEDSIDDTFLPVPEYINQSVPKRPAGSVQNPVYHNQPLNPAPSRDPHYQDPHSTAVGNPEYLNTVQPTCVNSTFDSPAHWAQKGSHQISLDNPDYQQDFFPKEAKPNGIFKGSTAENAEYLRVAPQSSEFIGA
(§2) Cell lines are plated in media. The compounds of the present disclosure are then serially diluted and transferred to the cells. Cell viability is measured via a luminescent readout. Data is analyzed by non-linear regression curve-fitting.
(§3) The EGFR mutant L858R, Del E746_A750, L858R/T790M, DelE746_A750/T790M, L858R/T790M/C797S and Del/T790M/C797S Ba/F3 cells have been previously described (Zhou, W., Ercan, D., Chen, L., Yun, C. H., Li, D., Capelletti, M., Cortot, A. B., Chirieac, L., Iacob, R. E., Padera, R., et al. “Novel mutant-selective EGFR kinase inhibitors against EGFR T790M,” Nature 462, (2009), 1070-1074). All cell lines were maintained in RPMI 1640 (Cellgro; Mediatech Inc., Herndon, Calif.) supplemented with 10% FBS 100 units/mL penicillin, 100 units/mL streptomycin, and 2 mM glutamine. L858R cells were maintained in ACL-4 media (Invitrogen, Carlsbad, Calif.) supplemented with 5% FBS, 100 units/mL penicillin, 100 units/mL streptomycin, and 2 mM glutamine. The EGFR I941R mutation was introduced via site directed mutagenesis using the Quick Change Site-Directed Mutagenesis kit (Stratagene; La Jolla, Calif.) according to the manufacturer's instructions. All constructs were confirmed by DNA sequencing. The constructs were shuttled into the retroviral vector JP 1540 using the BD Creator™ System (BD Biosciences). Ba/F3 cells were infected with retrovirus and according to standard protocols, as described previously (Zhou et al, Nature 2009). Stable clones were obtained by selection in puromycin (2 μg/ml).
(§4) Growth and inhibition of growth was assessed by MTS assay and was performed according to previously established methods (Zhou et al., Nature 2009). The MTS assay is a colorimetric method for determining the number of viable cells that is based on the bioreduction of MTS by cells to a formazan product that is soluble in cell culture medium and can be detected spectrophotometrically. Ba/F3 cells of different EGFR genotypes were exposed to treatment for 72 hours and the number of cells used per experiment determined empirically and has been previously established (Zhou et al., Nature 2009). All experimental points were set up in six wells and all experiments were repeated at least three times. […] The curves were fitted using a non-linear regression model with a sigmoidal dose response.

Experiment [3] concerns EGFR Parental Ba/F3 cell line. Put plainly: Ba/F3 cell proliferation model. The experiment is classed as cell-based, murine. The note with it: Mus musculus, BaF3; compound alone.
Excerpt: as §1, §2, §3, §4

Another experiment deals with T1, L858R mutant EGFR (Homo sapiens, UniProt P00533, L858R).
T1 construct: Constructs spanning residues 696-1022 of the human EGFR; GST (cleaved yes); made in house; host or cells: Sf9 insect cells
T1 sequence (P00533 696-1022 L858R): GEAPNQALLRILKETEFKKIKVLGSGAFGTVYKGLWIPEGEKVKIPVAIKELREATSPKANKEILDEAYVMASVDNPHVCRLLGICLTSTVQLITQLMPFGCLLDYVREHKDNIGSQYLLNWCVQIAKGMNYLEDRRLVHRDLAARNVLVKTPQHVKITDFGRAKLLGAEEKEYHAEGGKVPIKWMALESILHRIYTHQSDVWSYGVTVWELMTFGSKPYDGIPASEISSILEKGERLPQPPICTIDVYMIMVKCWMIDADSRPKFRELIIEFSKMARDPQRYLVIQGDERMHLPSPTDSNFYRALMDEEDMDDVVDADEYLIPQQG
Nature of the experiment: HTRF-based EGFR biochemical assay. The note with it: relative to L858R/T790M and T790M mutants. The protocol:
EGFR biochemical assays are carried out using a homogeneous time-resolved fluorescence (HTRF) assay. The reaction mixtures contain biotin-Lck-peptide substrate, wild type, or mutant EGFR enzyme in reaction buffer. Enzyme concentrations are adjusted to accommodate varying kinase activity and ATP concentrations. Compounds of the present disclosure are diluted into the assay mixture and IC50 values are determined using 12-point inhibition curves.
Constructs spanning residues 696-1022 of the human EGFR (including wild type and L858R, L858R/T790M, T790M, and T790M/V948R mutant sequences) were prepared in a GST-fusion format using the pTriEX system (Novagen) for expression in Sf9 insect cells essentially as described. […]
EGFR biochemical assays were carried out using a homogeneous time-resolved fluorescence (HTRF) assay as described previously. […] Five μL per well of the detection reagent containing 2.5 ng PT66K (Cis-bio) and 0.05 μg SAXL (Prozyme) were added, and the plates were then incubated at room temperature for 1 hour and read with an EnVision plate reader.
A general note: In TR-FRET formats the signal depends on donor and acceptor labels being close together.

Setting [4] is: compound alone, read-out: L858R/T790M IC50.
Setting [5] is: read-out: L858R/T790M Cetuximab IC50, in combination with Cetuximab.
The mark [6] stands for this setting: compound alone, read-out: Del/T790M IC50.
Setting [7] is: read-out: Del/T790M Cetuximab IC50, in combination with Cetuximab.

Each structure is given as a SMILES string. Like-named read-outs stand apart in the source and are kept apart here.

Chain of EGFR T790M/L858R Ba/F3 cell line (P00533 whole entry T790M/L858R): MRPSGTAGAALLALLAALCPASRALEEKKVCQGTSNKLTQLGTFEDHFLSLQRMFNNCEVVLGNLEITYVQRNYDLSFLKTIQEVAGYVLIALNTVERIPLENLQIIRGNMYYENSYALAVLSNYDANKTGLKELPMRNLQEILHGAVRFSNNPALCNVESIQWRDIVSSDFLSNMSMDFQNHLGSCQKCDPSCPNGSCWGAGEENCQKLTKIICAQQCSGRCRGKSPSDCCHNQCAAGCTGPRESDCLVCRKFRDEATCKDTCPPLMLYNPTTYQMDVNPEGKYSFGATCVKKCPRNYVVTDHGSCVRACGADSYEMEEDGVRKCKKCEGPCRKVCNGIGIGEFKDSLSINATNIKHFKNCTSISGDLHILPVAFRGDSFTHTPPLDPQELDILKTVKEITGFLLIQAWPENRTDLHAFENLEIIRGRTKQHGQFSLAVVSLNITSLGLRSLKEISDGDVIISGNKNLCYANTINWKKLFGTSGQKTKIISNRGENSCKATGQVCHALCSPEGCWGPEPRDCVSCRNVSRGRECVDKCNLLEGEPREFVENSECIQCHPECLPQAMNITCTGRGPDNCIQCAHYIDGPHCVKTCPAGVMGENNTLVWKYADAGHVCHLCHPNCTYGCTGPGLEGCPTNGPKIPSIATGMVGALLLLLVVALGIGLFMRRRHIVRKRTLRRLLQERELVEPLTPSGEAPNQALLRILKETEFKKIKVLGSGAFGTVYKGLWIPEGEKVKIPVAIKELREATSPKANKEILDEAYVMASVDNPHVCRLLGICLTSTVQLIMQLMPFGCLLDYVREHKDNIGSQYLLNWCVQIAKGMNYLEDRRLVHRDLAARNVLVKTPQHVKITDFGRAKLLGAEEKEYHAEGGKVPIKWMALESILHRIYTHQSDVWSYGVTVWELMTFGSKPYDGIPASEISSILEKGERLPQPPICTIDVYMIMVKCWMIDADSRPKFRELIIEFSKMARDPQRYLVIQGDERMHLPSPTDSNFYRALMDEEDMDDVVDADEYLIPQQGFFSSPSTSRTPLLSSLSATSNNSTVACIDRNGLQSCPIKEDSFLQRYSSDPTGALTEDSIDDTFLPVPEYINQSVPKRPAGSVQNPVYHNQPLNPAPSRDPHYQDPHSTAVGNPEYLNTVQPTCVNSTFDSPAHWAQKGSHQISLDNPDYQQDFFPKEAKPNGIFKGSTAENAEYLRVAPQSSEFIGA

As a reminder, the IC50 is the concentration that inhibits the measured activity by half. `O=C(Nc1nccs1)[C@@H](c1ccccc1)N1Cc2ccc(-c3ccc4[nH]ccc4c3)cc2C1=O` [Compound I-66, (R)-2-(6-(1H-indol-5-yl)-1-oxoisoindolin-2-yl)-2-phenyl-N-(thiazol-2-yl)acetamide]: the “Activity (% inhibition)” value in experiment [1] is on record as “D (a % inhibition of between about 0% to about 25%)”. Moreover, the GI50 was 1 to 10 µM in experiment [1] (setting [4]), below 0.5 µM in experiment [1] (setting [5]), above 10 µM in experiment [2] (setting [6]) and 1 to 10 µM in experiment [2] (setting [7]). Moreover, the IC50 in experiment [3] is above 10 µM.

Regarding `O=C(Nc1nccs1)[C@@H](c1ccccc1)N1Cc2ccc(-c3ccc(N4CCNCC4)cc3F)cc2C1=O` [Compound I-120, (R)-2-(6-(2-fluoro-4-(piperazin-1-yl)phenyl)-1-oxoisoindolin-2-yl)-2-phenyl-N-(thiazol-2-yl)acetamide], the “Activity (% inhibition)” value in experiment [1] was “D (a % inhibition of between about 0% to about 25%)”. For the same compound, the GI50 is 1 to 10 µM in experiment [1] (setting [4]), below 0.5 µM in experiment [1] (setting [5]), 1 to 10 µM in experiment [2] (setting [6]) and 1 to 10 µM in experiment [2] (setting [7]). The half-inhibitory concentration (IC50) in experiment [3] lay within 1 to 10 µM.

As for `O=C(Nc1nccs1)C(c1ccccc1)N1Cc2ccccc2C1=O` (stereo not shown) [Compound A1], the “decreased potency against L858R mutant EGFR” value at L858R mutant EGFR is listed as “approximately 2 fold”.

`O=C(Nc1nccs1)[C@H](c1ccccc1)N1Cc2ccc(-c3ccc(N4CCNCC4)cc3)cc2C1=O` [Compound I-115, (S)-2-(1-oxo-6-(4-(piperazin-1-yl)phenyl)isoindolin-2-yl)-2-phenyl-N-(thiazol-2-yl)acetamide]: the “Activity (% inhibition)” value in experiment [1] is recorded as “D (a % inhibition of between about 0% to about 25%)”. Also, the GI50 in experiment [1] (setting [4]) was 1 to 10 µM; in experiment [1] (setting [5]), below 0.5 µM; in experiment [2] (setting [6]), 1 to 10 µM; in experiment [2] (setting [7]) it was 1 to 10 µM. In addition, the IC50 in experiment [3] lay within 1 to 10 µM.
